Source: patent US9029391B2 (priority 2011, dated 2015)

System: HIV
Assay: MT4 Assay (anti-HIV activity)
Type: cell-based
Conditions: Human immunodeficiency virus 1, 96 h, read-out: HIV MT4 Assay IC50, HTLV-1 transformed cell line MT-4, cell titer glo, 10 point dose response curve
In short: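 IC50 values were fitted to 10-point dose-response series (3-4-fold dilutions, range >1000-fold), normalized to no-compound control. CellTiter-Glo read-out was taken after 96 hours in HTLV-1-transformed MT-4 cells. Cytotoxicity was measured in parallel under identical conditions.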

Row | Structure (SMILES) | IC50 [µM]
1 | Cc1c(-c2c([C@H](OC(C)(C)C)C(=O)O)n(C)c(=O)c3cc(C(=O)N4CCOCC4)ccc23)cc(F)c2c1CCCO2 (atropisomer, axis not shown; (M)) [Example 169, (S)(M)-2-(tert-butoxy)-2-(4-(8-fluoro-5-methylchroman-6-yl)-2-methyl-7-(morpholine-4-carbonyl)-1-oxo-1,2-dihydroisoquinolin-3-yl)acetic acid] | 22.5
2 | Cn1c(C(OC(C)(C)C)C(=O)O)c(-c2ccc(C(F)(F)F)cc2)c2ccccc2c1=O (stereo not drawn) [Example 17, 2-(tert-butoxy)-2-{2-methyl-1-oxo-4-[4-(trifluoromethyl)phenyl]-1,2-dihydroisoquinolin-3-yl}acetic acid] | 18.4
3 | Cc1ccc(-c2c(C(OC(C)(C)C)C(=O)O)n(C)c(=O)c3cc(CN(Cc4ccccn4)Cc4ccccn4)ccc23)cc1C (stereo not drawn) [Example 182, 2-(7-((bis(pyridin-2-ylmethyl)amino)methyl)-4-(3,4-dimethylphenyl)-2-methyl-1-oxo-1,2-dihydroisoquinolin-3-yl)-2-(tert-butoxy)acetic acid] | 1.38
4 | Cc1c(-c2c(C(OC(C)(C)C)C(=O)O)n(C)c(=O)c3cc(OCc4ccc(F)cc4F)ccc23)ccc2c1CCCO2 (stereo not drawn) [Example 134, 2-(tert-butoxy)-2-{7-[(2,4-difluorophenyl)methoxy]-2-methyl-4-(5-methyl-3,4-dihydro-2H-1-benzopyran-6-yl)-1-oxo-1,2-dihydroisoquinolin-3-yl}acetic acid] | 0.07
5 | Cn1c(C(OC(C)(C)C)C(=O)O)c(-c2cccc3ccccc23)c2ccccc2c1=O (stereo not drawn) [Example 29, 2-(tert-butoxy)-2-[2-methyl-4-(naphthalen-1-yl)-1-oxo-1,2-dihydroisoquinolin-3-yl]acetic acid] | 8.3
6 | Cc1c(-c2c([C@H](OC(C)(C)C)C(=O)O)n(C)c(=O)c3cc(OCc4ccccn4)ccc23)cc(F)c2c1CCCO2 [Example 143, (2S)-2-(tert-butoxy)-2-[4-(8-fluoro-5-methyl-3,4-dihydro-2H-1-benzopyran-6-yl)-2-methyl-1-oxo-7-(pyridin-2-ylmethoxy)-1,2-dihydroisoquinolin-3-yl]acetic acid] | 0.03
7 | Cn1c(C(OC(C)(C)C)C(=O)O)c(-c2ccc3c(c2)OCCCO3)c2ccccc2c1=O (stereo not drawn) [Example 61, 2-(tert-butoxy)-2-[4-(3,4-dihydro-2H-1,5-benzodioxepin-7-yl)-2-methyl-1-oxo-1,2-dihydroisoquinolin-3-yl]acetic acid] | 8.7
8 | Cc1c(-c2c([C@H](OC(C)(C)C)C(=O)O)n(C)c(=O)c3cc(Cc4ccccc4)ccc23)cc(F)c2c1CCCO2 (atropisomer, axis not shown; (M)) [Example 175, (2S)(M)-[(1,1-dimethylethyl)oxy][4-(8-fluoro-5-methyl-3,4-dihydro-2H-chromen-6-yl)-2-methyl-1-oxo-7-(phenylmethyl)-1,2-dihydro-3-isoquinolinyl]ethanoic acid] | 0.07
9 | Cc1c(-c2c(C(OC(C)(C)C)C(=O)O)n(C)c(=O)c3ccccc23)ccc2c1CCCO2 (stereo not drawn) [Example 19, 2-(tert-butoxy)-2-[2-methyl-4-(5-methyl-3,4-dihydro-2H-1-benzopyran-6-yl)-1-oxo-1,2-dihydroisoquinolin-3-yl]acetic acid] | 0.41
10 | Cc1c(-c2c(C(OC(C)(C)C)C(=O)O)n(C)c(=O)c3ccccc23)cc(Cl)c2c1CCCO2 (stereo not drawn) [Example 70, 2-(tert-butoxy)-2-[4-(8-chloro-5-methyl-3,4-dihydro-2H-1-benzopyran-6-yl)-2-methyl-1-oxo-1,2-dihydroisoquinolin-3-yl]acetic acid] | 1.23
11 | Cc1c(-c2c(C(OC(C)(C)C)C(=O)O)n(C)c(=O)c3cc(OCc4cccc(F)c4F)ccc23)ccc2c1CCCO2 (stereo not drawn) [Example 96, 2-(tert-butoxy)-2-{7-[(2,3-difluorophenyl)methoxy]-2-methyl-4-(5-methyl-3,4-dihydro-2H-1-benzopyran-6-yl)-1-oxo-1,2-dihydroisoquinolin-3-yl}acetic acid] | 0.07
12 | Cn1c(C(OC(C)(C)C)C(=O)O)c(-c2ccc3c(c2Cl)CCCO3)c2ccccc2c1=O (stereo not drawn) [Example 21, 2-(tert-butoxy)-2-[4-(5-chloro-3,4-dihydro-2H-1-benzopyran-6-yl)-2-methyl-1-oxo-1,2-dihydroisoquinolin-3-yl]acetic acid] | 3.5
13 | Cc1ccc(COc2ccc3c(-c4cc(F)c5c(c4C)CCCO5)c([C@H](OC(C)(C)C)C(=O)O)n(C)c(=O)c3c2)s1 [Example 113, (2S)-2-(tert-butoxy)-2-[4-(8-fluoro-5-methyl-3,4-dihydro-2H-1-benzopyran-6-yl)-2-methyl-7-[(5-methylthiophen-2-yl)methoxy]-1-oxo-1,2-dihydroisoquinolin-3-yl]acetic acid] | 0.03
14 | COc1ccc2c(-c3ccc4c(c3C)CCCO4)c([C@H](OC(C)(C)C)C(=O)O)n(C)c(=O)c2c1 [Example 94, (2S)-2-(tert-butoxy)-2-[7-methoxy-2-methyl-4-(5-methyl-3,4-dihydro-2H-1-benzopyran-6-yl)-1-oxo-1,2-dihydroisoquinolin-3-yl]acetic acid] | 0.02
15 | Cc1c(-c2c([C@H](OC(C)(C)C)C(=O)N(C)O)n(C)c(=O)c3ccccc23)cc(F)c2c1CCCO2 (atropisomer, axis not shown; (M)) [Example 214, (S)(M)-2-(tert-butoxy)-2-(4-(8-fluoro-5-methylchroman-6-yl)-2-methyl-1-oxo-1,2-dihydroisoquinolin-3-yl)-N-hydroxy-N-methylacetamide] | 4.84
16 | Cc1c(-c2c(C(OC(C)(C)C)C(=O)O)n(C)c(=O)c3cc(OCc4ccc(F)cc4)ccc23)ccc2c1CCCO2 (stereo not drawn) [Example 93, 2-(tert-butoxy)-2-{7-[(4-fluorophenyl)methoxy]-2-methyl-4-(5-methyl-3,4-dihydro-2H-1-benzopyran-6-yl)-1-oxo-1,2-dihydroisoquinolin-3-yl}acetic acid] | 0.08
17 | Cc1c(-c2c([C@H](OC(C)(C)C)C(=O)O)n(C)c(=O)c3cc(OCc4ccc(Cl)s4)ccc23)cc(F)c2c1CCCO2 [Example 110, (2S)-2-(tert-butoxy)-2-{7-[(5-chlorothiophen-2-yl)methoxy]-4-(8-fluoro-5-methyl-3,4-dihydro-2H-1-benzopyran-6-yl)-2-methyl-1-oxo-1,2-dihydroisoquinolin-3-yl}acetic acid] | 0.04
18 | COc1cc(-c2c(C(OC(C)(C)C)C(=O)O)n(C)c(=O)c3ccccc23)cc(OC)c1OC (stereo not drawn) [Example 27, 2-(tert-butoxy)-2-[2-methyl-1-oxo-4-(3,4,5-trimethoxyphenyl)-1,2-dihydroisoquinolin-3-yl]acetic acid] | 50
19 | Cc1ccc(-c2c(C(CC(C)C)C(=O)O)n(C)c(=O)c3ccccc23)c(C)c1 (stereo not drawn) [Example 217, 2-[4-(2,4-dimethylphenyl)-2-methyl-1-oxo-1,2-dihydro-3-isoquinolinyl]-4-methylpentanoic acid] | 13.1
20 | COc1c(C)cc(-c2c(C(OC(C)(C)C)C(=O)O)n(C)c(=O)c3ccccc23)cc1C (stereo not drawn) [Example 1, tert-Butoxy-[4-(4-methoxy-3,5-dimethyl-phenyl)-2-methyl-1-oxo-1,2-dihydro-isoquinolin-3-yl]-acetic acid] | 6.59
21 | Cc1c(-c2c([C@H](OC(C)(C)C)C(=O)O)n(C)c(=O)c3cc(-c4ccncc4)ccc23)cc(F)c2c1CCCO2 (atropisomer, axis not shown; (M)) [Example 205, (2S)(M)-[(1,1-dimethylethyl)oxy][4-(8-fluoro-5-methyl-3,4-dihydro-2H-chromen-6-yl)-2-methyl-1-oxo-7-(4-pyridinyl)-1,2-dihydro-3-isoquinolinyl]ethanoic acid] | 0.16
22 | Cc1c(-c2c([C@H](OC(C)(C)C)C(=O)O)n(C)c(=O)c3cc(F)ccc23)cc(F)c2c1CCCO2 [Example 139, (2S)-2-(tert-butoxy)-2-[7-fluoro-4-(8-fluoro-5-methyl-3,4-dihydro-2H-1-benzopyran-6-yl)-2-methyl-1-oxo-1,2-dihydroisoquinolin-3-yl]acetic acid] | 0.03
23 | Cn1c(C(OC(C)(C)C)C(=O)O)c(-c2ccc(OC3CCCCC3)cc2)c2ccccc2c1=O (stereo not drawn) [Example 24, 2-(tert-butoxy)-2-{4-[4-(cyclohexyloxy)phenyl]-2-methyl-1-oxo-1,2-dihydroisoquinolin-3-yl}acetic acid] | 25
24 | Cn1c(C(OC(C)(C)C)C(=O)O)c(-c2ccc3ncccc3c2)c2ccccc2c1=O (stereo not drawn) [Example 62, 2-(tert-butoxy)-2-[2-methyl-1-oxo-4-(quinolin-6-yl)-1,2-dihydroisoquinolin-3-yl]acetic acid] | 11.1
25 | Cc1c(-c2c([C@H](OC(C)(C)C)C(=O)O)n(C)c(=O)c3cc(-c4cnn(C)c4)ccc23)cc(F)c2c1CCCO2 (atropisomer, axis not shown; (M)) [Example 200, (2S)(M)-[(1,1-dimethylethyl)oxy][4-(8-fluoro-5-methyl-3,4-dihydro-2H-chromen-6-yl)-2-methyl-7-(1-methyl-1H-pyrazol-4-yl)-1-oxo-1,2-dihydro-3-isoquinolinyl]ethanoic acid] | 0.11
26 | Cc1c(-c2c(C(OC(C)(C)C)C(=O)O)n(C)c(=O)c3ccc(F)cc23)cc(F)c2c1CCCO2 (stereo not drawn) [Example 91, 2-(tert-butoxy)-2-[6-fluoro-4-(8-fluoro-5-methyl-3,4-dihydro-2H-1-benzopyran-6-yl)-2-methyl-1-oxo-1,2-dihydroisoquinolin-3-yl]acetic acid] | 0.44
27 | COc1ccc2c(-c3ccc4c(c3C)CCCO4)c(C(OC(C)(C)C)C(=O)O)n(C)c(=O)c2c1F (stereo not drawn) [Example 126, 2-(tert-butoxy)-2-[8-fluoro-7-methoxy-2-methyl-4-(5-methyl-3,4-dihydro-2H-1-benzopyran-6-yl)-1-oxo-1,2-dihydroisoquinolin-3-yl]acetic acid] | 0.36
